For nine compounds, logP results are on record in the SangsterLogP compilation.

For orientation: logP means a log measure of how a compound divides between an organic and an aqueous phase. A higher logP goes with higher lipophilicity.

The compound `Cc1cccc(C)c1N(C(=O)CCl)C1CCOC1=O` (centres undefined) had a logP of 1.39.

Take `O=C(NC(=O)c1c(F)cccc1F)Nc1ccc(Cl)c(Oc2ncc(C(F)(F)F)cc2Cl)c1`: the logP is 5.1.

`O=C(NC(=O)c1c(F)cccc1F)Nc1ccc(OC(F)(F)C(F)OC(F)(F)F)c(Cl)c1` (centres undefined) yielded a logP of 5.27.

Compound `CCOP(=O)(SC(C)CC)N1CCSC1=O` (centres undefined) had a logP of 1.68.

`Fc1cccc(F)c1-c1nnc(-c2ccccc2Cl)nn1` registered a logP of 3.3.

In turn, `COP(=O)(OC)SCn1c(=O)oc2cc(Cl)cnc21` displayed a logP of 1.05.

`Clc1ccc(CS/C(Cn2cncn2)=N\c2ccc(Cl)cc2Cl)cc1`: the logP stood at 4.94.

For `CN(C)S(=O)(=O)N(SC(F)(Cl)Cl)c1ccccc1`, the logP was determined as 3.7.

`CCc1cccc(C)c1N(COC(C)C)C(=O)CCl` displayed a logP of 3.5.
